From patent US20220267753A1, “RATIONAL THERAPEUTIC TARGETING OF ONCOGENIC IMMUNE SIGNALING STATES IN MYELOID MALIGNANCIES VIA THE UBIQUITIN CONJUGATING ENZYME UBE2N” (CHILDREN'S HOSPITAL MEDICAL CENTER, priority 2019, published 2022)

Columns and labels:
[1] = system: AML cells (THP-1, MOLM-13, OCI-AML2, OCI-AML3, MDSL); assay: Colony formation (clonogenic) assay in AML/MDS cell lines; assay type: cell-based, human; conditions: 2 μM
Protocol: In order to determine viability after UBE2N knockdown or inhibition, 1×10^6 AML cells were washed with PBS and mixed with pre-diluted APC-conjugated Annexin V (BD Pharmigen, Franklin Lakes, N.J.) and Propidium iodide (PI) (Invitrogen ThermoFisher 00-6990-42, Waltham, Mass.). Cells were stained at room temperature for 15 minutes and suspended in 0.5 ml of Annexin V incubation buffer (eBiosciences 88-8007-74, San Diego, Calif.) for analysis using a BD FACS Canto System (BD Biosciences, San Jose, Calif.). For UBE2N knockdown experiments, PI−/GFP+ cells were sorted using a MoFlo XDP sorter (Beckman Coulter, Brea, Calif.) and plated in methylcellulose (StemCell Technologies H4236, Vancouver, CA) at 1000 cells/ml in 35 mm culture dishes. For UBE2N inhibition experiments, cell lines were plated in methycellulose (StemCell Technologies H4236, Vancouver, CA) at the indicated concentrations of inhibitor. Cells were incubated at 37° C. and 5% CO2. Colonies were scored after 7 days in culture. For UBE2N or UBE2N C87S overexpression experiments, MOLM-13 cells were transduced with lentivectors overexpressing UBE2N wild type or mutant in the presence of polybrene (8 μg/ml). […] Colonies were scored at 7 days. […] Colonies were manually scored at 14-16 days after plating or counted with STEMVision (StemCell Technologies, Vancouver, CA).

[2] = system: MOLM-13 and THP-1 cells; assay: Immunoblot / qRT-PCR of NF-κB, STAT1 and IRF signaling; assay type: cell-based, human; conditions: 2 μM
Protocol: mRNA expression of selected genes was corroborated by quantitative reverse transcriptase PCR (see primer sequences in Table 2) using cDNA with SYBR® Green or Taqman® gene expression assays (Applied Biosystems, Waltham, Mass.) on the StepOnePlus from Applied Biosystems. Abundance of each transcript was calculated using the Pfaffl Method. Actin or GAPDH were used as housekeeping genes.
For immunoblots, total protein lysates were obtained from cells by lysing the samples in cold RIPA buffer (50 mM Tris-HCl, 150 mM NaCl, 1 mM EDTA, 1% Triton X-100 and 0.1% SDS), in the presence of PMSF, sodium orthovanadate, protease and phosphatase inhibitors. After being re-suspended in RIPA, cells were lysed in the cold room with rocking for 15 min. Protein concentration was evaluated by a BCA assay (Pierce, Waltham, Mass.). SDS sample buffer was added to the lysates and the proteins were separated by SDS-polyacrylamide gel electrophoresis, transferred to PVDF or nitrocellulose membranes, and analyzed by immunoblotting. […] Membranes were imaged with Biorad ChemiDoc™ MP and analyzed with Image lab software 6.0.1 (Biorad, Hercules, Calif.) or Image J [67].

[3] = In vivo toxicity study; conditions: 4 doses of 25 mg/kg over 2 weeks, mice
Protocol: PK studies of UC-764864 and UC-764865 were performed in C57BL/6 mice (18-22 g). 10 mg/kg and 20 mg/kg UC-764864 or UC-764865 was administered through intraperitoneal (i.p.) injection. After dosing, blood samples were collected at 15 min, 30 min, 1 h, 2 h, 4 h, 8 h, 12 h, and 24 h. Samples from three animals were collected at each time point. Approximately 500 μL of blood was collected via orbital vein from each mouse, processed, and analyzed by LC-MS. Standard curves were prepared in blood covering the concentration range of 50-3,0000 ng/mL. Using the data from the standard curves, calibration curves were generated for PK tests. For in vivo toxicity studies, 25 mg/kg UC-764864, UC-764865, 10 mg/kg NSC697923 or vehicle control (methocel 0.5% tween-20 0.2%,0.1% DMSO in water) were administered in B6.SJL-Ptprca Pepcb/BoyJ mice (n=3/group) through i.p. injection. For 2 weeks the mice received 4 doses of each compound. Routine body weight and blood counts were performed. At the end of the study, tissues were harvested, placed in 10% buffered formalin, stained with hematoxylin and eosin (H&E) and examined by a pathologist.

[4] = system: patient-derived AML cells; assay: Patient-derived xenografts (PDX) in NSGS mice; assay type: in vivo

Compound | reduction in colony formation vs vehicle [1] | baseline NF-κB, STAT1, IRF7 and IRF1 activity in UBE2N-dependent AML cells [2] | body weight, hematologic blood parameters, survival [3] | histological evaluation of several tissues [3] | tolerability after repeated administration [3] | leukemic burden of mice xenografted with UBE2N-resistant sample AML-JM60 ([4]; 25 mg/kg IP) | total and ubiquitinated UBE2N in BM cells of mice xenografted with AML-JM40 ([4]; 25 mg/kg, vs vehicle, immunoblot) | reduction in leukemic burden of UBE2N-sensitive AML cells in the BM ([4]; JM7, JM40, JM26, 25 mg/kg IP, P=0.008)
CCc1ccc(C(=O)C=CSc2nc3ccc(C)cc3[nH]2)cc1 [UC-764864, 1-(4-ethylphenyl)-3-[(6-methyl-1H-benzimidazol-2-yl)sulfanyl]prop-2-en-1-one] | 20-95% | inhibition |  |  |  |  |  | 
COc1ccc(C(=O)C=CSc2nc3ccc(C)cc3[nH]2)cc1 [UC-764865, 1-(4-methoxyphenyl)-3-[(6-methyl-1H-benzimidazol-2-yl)sulfanyl]prop-2-en-1-one] |  |  | did not significantly affect | no evidence of overall tissue toxicity | no abnormalities noted | did not decrease | reduced | 30-60%
